# In patent US11844350B2, “Plant growth regulation” (Syngenta Participations AG, priority 2017, dated 2023):
# Tested on: rice (Oryza sativa L.) varieties ADT45
# Assay: Plant growth regulation field trial in rice, India (lodging, plant height, heat stress symptoms)
# Format: in vivo
# Protocol: Field trials were setup during the hot season in Annanagar and Kumbakonam in India. Local rice (Oryza sativa L.) varieties ADT45 was mechanically transplanted at four plants per hill with a plant spacing of 16 cm and a row spacing of 30 cm. All trials were performed in good level of water management. Fertilizer application, and weed, insect and disease control were carried out in accordance with the best local practice across the trial area. Commercial treated seeds were used (with no neonicotinoid compounds present).
# The trial design was a randomized bloc design, with a plot size of 40 m^2 (12 rows, each […] and 10 m long); each trial had four replicates.
# Overall trial quality was very high: there was no insect damage and no disease pressure or weeds; the plots were very homogenous. Heat stress level was low to medium with 5-10% empty spikelets in the untreated control.
smiles,measurement,setting,value
COc1cccc(Nc2nc(F)nc3[nH]cnc23)c1 [Formula (Ia)],Lodging (%),"10 g ai/ha, applied at panicle initiation (BBCH 30)",29.0%
same,Lodging (%),"20 g ai/ha, applied at BBCH 30",56.0%
same,Lodging compared to the untreated control,result in words,significantly reduces lodging
